Measurements taken from PubChem BioAssay (NCI).
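Five concentrations, 48 hours, 96-well plates. GI50 = concentration required for 50% inhibition of growth. At the TGI there is no net growth.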

Columns and labels:
Experiment in all cases: NCI-60 cell line screen, 48 h; in the data active = GI50 below about 0.43 µM; inactive = the rest
[1] = test system: 786-0 renal
[2] = test system: A498 renal
[3] = test system: A549 NSCLC
[4] = test system: ACHN renal
[5] = test system: BT-549 breast
[6] = test system: CAKI-1 renal
[7] = test system: CCRF-CEM leukemia
[8] = test system: COLO 205 colon
[9] = test system: DU-145 prostate
[10] = test system: EKVX NSCLC
[11] = test system: HCC-2998 colon
[12] = test system: HCT-116 colon
[13] = test system: HCT-15 colon
[14] = test system: HL-60(TB) leukemia
[15] = test system: HOP-62 NSCLC
[16] = test system: HOP-92 NSCLC
[17] = test system: HS 578T breast
[18] = test system: HT29 colon
[19] = test system: IGROV1 ovarian
[20] = test system: K-562 leukemia
[21] = test system: KM12 colon
[22] = test system: LOX IMVI melanoma
[23] = test system: M14 melanoma
[24] = test system: MALME-3M melanoma
[25] = test system: MCF7 breast
[26] = test system: MDA-MB-231 breast
[27] = test system: MDA-MB-435
[28] = test system: MOLT-4 leukemia

CS(=O)(=O)c1ccc(Oc2cc(F)cc(C#N)c2)c2c1[C@H](O)C(F)(F)C2
> 100 µM: TGI [1] | TGI [2] | TGI [3] | TGI [4] | TGI [5] | TGI [6] | TGI [8] | TGI [9] | TGI [10] | TGI [11] | TGI [12] | TGI [13] | TGI [14] | TGI [15] | TGI [16] | TGI [17] | TGI [18] | TGI [19] | TGI [20] | TGI [21] | TGI [22] | TGI [23] | TGI [24] | TGI [25] | TGI [26] | TGI [27] | TGI [28]
inactive: GI50 [1] > 100 µM | GI50 [2] > 100 µM | GI50 [3] > 100 µM | GI50 [4] > 100 µM | GI50 [5] > 100 µM | GI50 [6] > 100 µM | GI50 [7] 21.9 µM | GI50 [8] > 100 µM | GI50 [9] > 100 µM | GI50 [10] > 100 µM | GI50 [11] > 100 µM | GI50 [12] > 100 µM | GI50 [13] > 100 µM | GI50 [14] > 100 µM | GI50 [15] > 100 µM | GI50 [16] > 100 µM | GI50 [17] > 100 µM | GI50 [18] > 100 µM | GI50 [19] > 100 µM | GI50 [20] > 100 µM | GI50 [21] > 100 µM | GI50 [22] > 100 µM | GI50 [23] > 100 µM | GI50 [24] > 100 µM | GI50 [25] > 100 µM | GI50 [26] > 100 µM | GI50 [27] > 100 µM | GI50 [28] > 100 µM
47.5 µM: TGI [7]
